Laboratory results as given in patent US4988691A (priority 1989, dated 1991).
Entries after “also recorded” stand apart in the source; their conditions may differ. Structures can show the parent of a compound that is named as a salt. Where two headings read alike, the source gives them in different places.

Assays:
[1] = system: norepinephrine induced arrythmias in rat; assay: inhibition of norepinephrine induced arrythmias in rat; type: in vivo; details: for ED50: Rattus norvegicus, 50% reduction of arrythmia duration
Method: Male rats, weighing 300-400 g, narcotized with urethan (1.5 g/kg, i.p.) were used; one little probe was implanted into the jugular vein and another into the femoral vein for administering norepinephrine and the test substance respectively. The EGC was recorded in II derivation and from it the instantaneous heart rate was derived. Furthermore, the EGC wave was monitored on oscilloscope and made audible by mean of a loudspeaker. Norepinephrine (75 μg/kg/min. for 15 seconds, 7-8 μg/animal) was administered by means of a Braun perfusion apparatus. The dose of administered norepinephrine was established in preliminary tests so as to cause an arrythmia of a duration equal to or higher than 10 seconds. The arising time of the heart arrythmia starting from the beginning of the norepinephrine perfusion and the duration of the arrythmic phase were recorded. Tests of arrythmia duration for each animal were performed; thereafter the compounds of formula I and the compound R were administered intravenously or per os 2 minutes or 1 hour respectively before a fourth norepinephrine infusion. The activity of test compounds was evaluated as increasing percentage in the time of the arising of arrythmia as well as of the inhibition (duration of the arrythmic phase). For each dose at least 5 tests were performed. In table 9 we report as an example the ED50 values defined as 50% reduction of the duration of arrythmias after the administration of both compound No. 8 and compound R either intravenously (i.v.) or per os (p.o.).

Ca^++ receptors = assay: displacement of 3H-nitrendipine from Ca++ receptors, rat brain membranes; type: binding; details: 3H-nitrendipine 1nM
[2] = target: T1, contracturing effect of histamine (Cavia porcellus, UniProt P31389); assay: antihistaminic activity in vitro (contracturing effect of histamine on isolated guinea pig small intestine); set-up: species or system Guinea pigs
T1 construct: Segments measuring 5-6 cm were drawn form the end portion of the small intestine; from tissue; host or cells: guinea pig terminal small intestine (ileum)

5-HT1 receptors = assay: affinity for 5-HT1 receptors (3H serotonin binding), rat cortex membranes; details: 3H-serotonin 5 nM; rat frontal cortex membranes
guinea pig back = assay: local anaesthetic activity in the test of the guinea pig back in vivo (intracutaneous infiltration); details: for ED50 (C.L. 95%), 5 min. / ED50 (C.L. 95%), 15 min. / ED50 (C.L. 95%), 30 min.: guinea pig back, cutaneous anaesthesia, 0.25 ml; for ED50 (C.L. 95%), 5 min.: 5 min. after administration; for ED50 (C.L. 95%), 15 min.: 15 min. after administration; for ED50 (C.L. 95%), 30 min.: 30 min. after administration
Method: (b) Evaluation of the local anaesthetic activity in the test of the guinea pig back in vivo in comparison with lidocaine.
The local anaesthetic activity was evaluated by the method of intracutaneous infiltration in the guinea pig back as described by Bulbring E. and Wajda I. [(J. Pharmacol. Exp. Ther. 85, 78, (1945)].
Female guinea pigs weighin 400-500 g were treated intracutaneously in 4 points of their back.
At 5 minutes intervals, it was determined the reactivity of the animal to pain in each area by considering the number of responses to 6 pain stimulations.
Compounds of formula I, compound R and lidocaine, dissolved at different concentration in physiological solution adjusting the pH at 7 by addition of NaHCO3 were injected under the skin at the constant volume of 0.25 ml.
The distribution of the treatments in the 4 areas of the back was carried out according to the scheme of the Latin square. Experiments were carried out in blind.
As an example, the ED50 values for compound No. 8, compound R and lidocaine determined at 5, 15 and 30 minutes after the administration are reported in table 4.

5-HT2 receptors = 5-HT2 receptors (Rattus norvegicus, UniProt P14842); assay: affinity for 5-HT2 receptors (3H-spiroperidol binding), rat cortex membranes; details: rat frontal cortex membranes
[3] = target: T2, contracturing effect of acetylcholine (Cavia porcellus, UniProt H0W1Z3); assay: anticholinergic activity in vitro (contracturing effect of acetylcholine on isolated guinea pig small intestine); set-up: species or system Guinea pigs
T2 construct: Segments measuring 5-6 cm were drawn form the end portion of the small intestine; from tissue; host or cells: guinea pig terminal small intestine (ileum)

[4] = system: reperfusion induced arrythmias in rat; assay: inhibition of reperfusion induced arrythmias in rat; type: in vivo; details: for % VF / % dead: 10 treated rats; for incidence dead / incidence VF: number of 10 treated rats
[5] = system: receptors for benzodiazepins; assay: displacement of 3H-flunitrazepam from benzodiazepine receptors, rat cerebral cortex membranes; type: binding; details: 3H-flunitrazepam 1nM
5-HT3 receptors [6] = target: T3, 5-HT3 receptors (Rattus norvegicus, UniProt P35563); assay: anti-5-HT3 activity in vivo, inhibition of the Bezold-Jarisch effect; details: intravenous, read-out: ED50 to the antagonism of the heart rate fall (Bezold-Jarisch effect)
T3 construct: Male albino rats weighing 300-400 g anaesthetized with urethan; from tissue; host or cells: whole anaesthetized rat (endogenous receptor on cardiac vagal afferents)
T3 sequence (P35563 24-483): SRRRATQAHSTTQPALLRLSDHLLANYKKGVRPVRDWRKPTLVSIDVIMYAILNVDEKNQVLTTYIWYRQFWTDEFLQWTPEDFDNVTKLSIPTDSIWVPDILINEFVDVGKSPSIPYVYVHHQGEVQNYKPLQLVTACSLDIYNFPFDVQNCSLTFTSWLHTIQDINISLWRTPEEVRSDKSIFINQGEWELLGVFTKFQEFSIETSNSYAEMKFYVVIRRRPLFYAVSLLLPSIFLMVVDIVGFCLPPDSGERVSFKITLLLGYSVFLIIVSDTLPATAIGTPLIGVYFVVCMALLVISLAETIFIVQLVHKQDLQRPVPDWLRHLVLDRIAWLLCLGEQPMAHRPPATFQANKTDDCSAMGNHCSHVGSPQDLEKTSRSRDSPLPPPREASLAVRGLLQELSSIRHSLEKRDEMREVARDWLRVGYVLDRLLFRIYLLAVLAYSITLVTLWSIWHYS
From the text: (a) Evaluation of the anti-5-HT3 activity in vivo by the method of the inhibition of the Bezold-Jarisch effect. The followed method was described by Fozard J. R. et al. [Nature, 316, 126-131, (1985)]. Male albino rats weighing 300-400 g anaesthetized with urethan (1.25-1.5 g/kg i.p.) were used. A tracheal cannula to allow respiration, one little catheter implanted into the jugular vein for administering serotonin and another into the right femoral vein for the intravenous administration of the compounds of formula I and of compound R were used. The bolus injection into the jugular vein of a serotonin solution caused an abrupt reduction of the heart rate quantified as 100% of the effect. The evaluation of the anti-5-HT3 activity was performed by calculating ED50 values (μg/kg) to the antagonism of the heart rate fall.

rat sciatic nerve = assay: local anaesthetic activity on sciatic nerve preparation in vitro; details: for IC50: read-out: ED50 (C.L. 95%)
5-HT3 receptors [7] = target: T4, 5-HT3 receptors (Oryctolagus cuniculus, UniProt A0A5F9C9J3); assay: anti-5-HT3 activity in vitro on the isolated vagus nerve of rabbit
T4 construct: from tissue; host or cells: isolated rabbit vagus nerve
T4 sequence (A0A5F9C9J3 1-494): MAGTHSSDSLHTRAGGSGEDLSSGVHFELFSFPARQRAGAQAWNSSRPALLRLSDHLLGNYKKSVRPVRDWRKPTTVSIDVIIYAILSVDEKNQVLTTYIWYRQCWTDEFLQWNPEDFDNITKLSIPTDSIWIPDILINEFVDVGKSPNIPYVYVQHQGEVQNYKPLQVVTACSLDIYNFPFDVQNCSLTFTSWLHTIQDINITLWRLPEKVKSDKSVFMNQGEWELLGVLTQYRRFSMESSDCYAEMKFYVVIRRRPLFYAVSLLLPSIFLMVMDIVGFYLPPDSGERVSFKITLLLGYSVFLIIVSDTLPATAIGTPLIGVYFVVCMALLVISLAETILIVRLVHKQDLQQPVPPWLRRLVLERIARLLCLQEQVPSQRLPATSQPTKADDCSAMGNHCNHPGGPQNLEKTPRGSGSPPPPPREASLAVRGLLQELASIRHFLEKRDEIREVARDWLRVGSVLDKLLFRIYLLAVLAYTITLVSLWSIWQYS
Method: (b) Evaluation of the anti-5-HT3 activity in vitro on the vagus nerve of rabbit. Male albino New Zeland rabbits weighing about 3 kg were sacrified by an air injection in the edge auriculaers vein. The two vagus nerves, drawn as soon as possible, were placed in a bath of Locke solution having the following composition: 154 mM NaCl; 5.5 mM KCl; 2.2 mM CaCl2; 5 mM glucose; 8 mM TRIS, the pH being adjusted at 7.6 by addition of HCl. Nerves were stripped of their epineurium and transferred into a device described by Kosterlitz H. W. et al., [J. Physiol., 183, IP-3P, (1966)] consisting of four compartments separated by means of 3 elastic membranes having a little hole through which the nerve passes. The glucose concentration perfusing a portion of the nerve was 315 mM. The overmaximal electric stimulation by a single shock at 10 seconds intervals elicited a potential visualized on a storage oscilloscope. In the potential the complexes due to the excitation of fibers A, B and C were distinguished. A serotonin solution applied to the nerve causes the dose-dependent fall of the potential for fibers C only. The non variation of the A-B complex when applying serotonin and the test compounds of formula I indicates on one hand the specific action of the substances for receptors relating to fibers C only (5-HT3 receptors) and on the other hand the absence of local-anaesthetic activity. Tests were performed at room temperature (24°-25° C.). The optimum maximum reduction of the potential of fibers C by serotonin resulted to be 44%. This reduction was adopted as maximum effect (100%). For each nerve a dose-response curve was constructed with cumulative doses of serotonin. After having washed serotonin and recovered the initial potential, the nerve was balanced with a fixed concentration of the compound of formula I for 60 minutes and successively the dose-response curve to serotonin was repeated, the compound of formula I being always present in the same concentration. After having applied a serotonin concentration sufficient to produce the highest effect, the preparation was washed and thereafter it was balanced again for 60 minutes with a solution of the same compound of formula I having a higher concentration. The procedure was then repeated. For each dose of the compound of formula I the test was repeated more than 5 times. The negative […] logarithm of the molar concentration of the compound of formula I which gives a 50% reduction of the effect of the agonist substance (pA2) was calculated. In table 7, the pA2 values of some compounds of formula I are reported.

[8] = iv, 2 min, i.v., 2 minutes before norepinephrine, read-out: ED50 i.v.
[9] = po, 1 hour before norepinephrine, read-out: ED50 p.o.
[10] = 3 mg/kg per os, *** significance < 0.001

T2 sequence (H0W1Z3 1-590): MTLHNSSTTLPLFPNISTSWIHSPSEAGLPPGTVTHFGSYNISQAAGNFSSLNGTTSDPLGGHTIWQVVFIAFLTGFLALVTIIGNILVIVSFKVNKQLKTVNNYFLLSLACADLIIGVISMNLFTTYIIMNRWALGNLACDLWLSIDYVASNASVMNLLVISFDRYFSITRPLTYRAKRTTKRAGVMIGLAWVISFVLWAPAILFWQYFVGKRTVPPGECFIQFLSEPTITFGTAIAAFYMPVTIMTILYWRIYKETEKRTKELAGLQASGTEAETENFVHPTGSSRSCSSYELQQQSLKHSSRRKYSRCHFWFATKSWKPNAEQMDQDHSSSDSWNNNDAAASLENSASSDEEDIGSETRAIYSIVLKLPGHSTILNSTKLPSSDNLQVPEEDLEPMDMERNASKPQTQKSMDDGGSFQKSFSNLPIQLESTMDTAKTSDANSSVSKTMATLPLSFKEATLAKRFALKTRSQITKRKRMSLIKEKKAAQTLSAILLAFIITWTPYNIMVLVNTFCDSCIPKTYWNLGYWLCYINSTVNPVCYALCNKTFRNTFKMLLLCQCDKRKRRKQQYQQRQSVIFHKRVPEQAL
T1 sequence (P31389 whole entry): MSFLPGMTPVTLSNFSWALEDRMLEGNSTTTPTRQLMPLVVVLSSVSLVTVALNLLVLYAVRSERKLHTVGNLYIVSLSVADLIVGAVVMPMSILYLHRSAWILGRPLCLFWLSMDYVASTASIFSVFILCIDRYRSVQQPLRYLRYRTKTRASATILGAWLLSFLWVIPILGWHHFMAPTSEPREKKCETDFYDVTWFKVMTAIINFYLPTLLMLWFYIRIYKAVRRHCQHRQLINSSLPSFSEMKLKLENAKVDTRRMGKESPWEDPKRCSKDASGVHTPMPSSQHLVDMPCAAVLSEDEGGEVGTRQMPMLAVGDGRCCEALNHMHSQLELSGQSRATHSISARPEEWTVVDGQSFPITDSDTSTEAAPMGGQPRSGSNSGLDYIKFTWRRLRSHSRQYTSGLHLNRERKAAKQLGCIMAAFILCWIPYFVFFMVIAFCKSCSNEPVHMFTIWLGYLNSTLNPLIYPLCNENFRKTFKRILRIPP
Sequence of 5-HT2 receptors (P14842 whole entry): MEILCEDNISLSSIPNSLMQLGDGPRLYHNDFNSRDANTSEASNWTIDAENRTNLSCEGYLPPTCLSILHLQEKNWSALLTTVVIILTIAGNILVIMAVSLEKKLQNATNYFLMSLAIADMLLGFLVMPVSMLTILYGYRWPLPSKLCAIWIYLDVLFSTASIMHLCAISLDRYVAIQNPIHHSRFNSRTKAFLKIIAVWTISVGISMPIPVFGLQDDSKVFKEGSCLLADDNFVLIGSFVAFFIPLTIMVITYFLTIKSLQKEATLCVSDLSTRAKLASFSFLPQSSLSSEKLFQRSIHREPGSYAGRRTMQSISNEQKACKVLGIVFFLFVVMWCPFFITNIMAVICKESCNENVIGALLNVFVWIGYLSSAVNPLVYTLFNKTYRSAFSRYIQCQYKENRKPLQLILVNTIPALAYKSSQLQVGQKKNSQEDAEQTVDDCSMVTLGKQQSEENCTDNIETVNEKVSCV

| SMILES | ED50 [1, 8] [mg/kg] | ED50 [1, 9] [mg/kg] | Displacement activity at receptors of Ca++ (Ca^++ receptors) | Affinity (IC50) to 5-HT1 receptors (5-HT1 receptors) | ED50 (C.L. 95%), 5 min. (guinea pig back) | ED50 (C.L. 95%), 15 min. (guinea pig back) | ED50 (C.L. 95%), 30 min. (guinea pig back) | Kb [3] [µM] | % VF ([4]; 3 mg/kg per os) [%] | % dead ([4]; 3 mg/kg per os) [%] | incidence dead ([4]; 3 mg/kg per os) | incidence VF [4, 10] | Displacement activity at benzodiazepine receptors [5] | further results |
| --- | --- | --- | --- | --- | --- | --- | --- | --- | --- | --- | --- | --- | --- | --- |
| CN1[C@@H]2CC[C@H]1C[C@@H](OC(=O)c1c[nH]c3ccccc13)C2 [R, 3-endo-tropanyl indol-3-yl carboxylate, reference compound] | 0.65 | 4 | inactive | inactive | 2.5 (2.1-2.9) mM | 3.3 (3.0-3.7) mM | 5.7 (5.2-6.2) mM | 15.8 | 70 | 30 | 3 | 7 | 1,000 | Kb [2]: 3.16 µM; antihistaminic activity (in words) [2]: practically free of anticholinergic and antihistaminic activity; IC50 (5-HT2 receptors; 3H-spiroperidol 0.25 nM): 25 µM; anticholinergic activity (in words) [3]: practically free of anticholinergic and antihistaminic activity; ED50 (5-HT3 receptors [6]): 0.006 mg/kg; local anaesthetic activity (in words) (rat sciatic nerve): good activity; also recorded: comparable with that of lidocaine; IC50 (rat sciatic nerve; rat sciatic nerve in vitro, 8 minutes contact): 1300 µM |
| Cc1cc(C(=O)O[C@H]2C[C@H]3CC[C@@H](C2)N3C)no1 [Compound 8, 5-methylisoxazole-3-carboxylic acid 3-(endo-8-methyl-8-azabicyclo[3,2,1]octyl) ester hydrochloride] | 0.125 | 0.35 | inactive | inactive | 28.4 (25.5-31.8) mM | 32.8 (30.5-35.2) mM | 41.2 (38.8-43.7) mM | 6.31 | 0 | 0 | 0 | 0 | inactive | activity in norepinephrine-induced arrythmia (in words) ([1]; intravenously or per os): much more active than the compound R; Kb ([2]; vs histamine, guinea pig small intestine, 37° C., test compounds 10^-5 M, read-out: Antihistaminic activity (pA2) (converted)): 6.31 µM; local anaesthetic activity, guinea pig back (in words) (guinea pig back; guinea pig, in vivo): undoubtedly less active as local anaesthetic than compound R and lidocaine; Affinity (IC50) to 5-HT2 receptors (5-HT2 receptors; 3H-spiroperidol […]): inactive; % VF ([4]; 1 mg/kg per os): 20%; % dead ([4]; 1 mg/kg per os): 10%; incidence dead ([4]; 1 mg/kg per os): 1; incidence VF ([4]; 1 mg/kg per os, ** significance < 0.02): 2; antiarrythmic activity, reperfusion induced arrythmias (in words) ([4]; per os): active in the test of reperfusion-induced arrythmias; Kb (5-HT3 receptors [7]): 0.000631 µM; IC50 (rat sciatic nerve; rat, sciatic nerve, 8 min): > 15000 µM |
